In publication PMC7614683, “A small molecule PI3Kα activator for cardioprotection and neuroregeneration” (Nature, 2023):

Assays:
adult rat DRG neurons = assay: Neurite outgrowth in dissociated adult rat dorsal root ganglion cultures; assay type: cell-based; conditions: 72h; BYL719 500 nM with 1938 above 10^-7 M
Description: Dissociated adult rat dorsal root ganglion (DRG) cultures were used as an in vitro model for neuroregeneration[80],[81]. DRG neurons were isolated from adult male (>250g) Wistar rats as described, with DRGs from each rat cultured separately. Following culling via schedule 1 (rising concentration of CO2), the spinal column was removed and stored in PBS on ice. Cord tissue was removed to expose the DRGs and roots in the intervertebral foramen and the DRGs removed with forceps and scalpel under a dissecting microscope (Olympus SZ40). DRGs were manually cleaned by removal of roots, capsule and capillaries with forceps and then placed in DMEM supplemented with P/S. DRGs were treated with 0.125% collagenase type IV solution at 37°C for 90 min, and then mechanically dissociated by trituration using a 1 ml pipette. The collagenase solution was removed by 2 rounds of centrifugation in complete DMEM (DMEM with 1% P/S and 10% FBS) at 400 xg for 5 min, followed by resuspension of the DRG cell pellet in complete DMEM supplemented with 0.01 mM cytosine arabinoside. DRGs were plated in 75-cm[2] flasks coated with 0.1 mg/ml poly-D-lysine and incubated at 37°C, 5% CO2. […] 9 fields per well were captured and analysed using the CSIRO Neurite Analysis 2 […] in Columbus analysis software (Perkin Elmer). […]

PI3Kα-WT A549 cells = assay: TIRF microscopy of PIP3 reporter, PI3Kα-WT A549; assay type: cell-based, human; conditions: 1938, then BYL719 0.5 μM
Experimental: Phosphoinositide reporters used were GFP-PH-ARNO^I303Ex2 (PIP3 reporter[41]) and mCherry-cPH-TAPP1x3 (PI(3,4)P2 reporter[41]). TIRF microscopy allows selective imaging of the small cell volume, including the plasma membrane, directly adjacent to the coverslip onto which cells have been seeded. HeLa or A549 cells were seeded in Matrigel-coated (Corning #354230; diluted in Opti-MEM at 1:50) 8-well chamber slides (glass bottom, 1.55 refractive index; Thermo Fisher Scientific #155409) at a density of 5,000 cells/well. […]
Image analyses of total reporter intensities were performed with the Fiji open source image analysis package. The region of interest (ROI) corresponding to the footprint of the individual cell across time points were defined using minimal intensity projection to select only pixels present across all time points, following prior subtraction of camera noise (rolling ball method, radius = 500 pixels) and xy drift correction, intensity levels over time were measured. […] All other quantifications were performed using the open source software R/RStudio. The values plotted in Fig. 3d (iii) represent mean±SEM, following signal scaling to minimum and maximum values of the normalised fluorescence intensity for each time point (Fn(t)). […]

Cc1nc(NC(=O)N2CCC[C@H]2C(N)=O)sc1-c1ccnc(C(C)(C)C(F)(F)F)c1 [BYL719, reference compound]
neurite outgrowth (total length of neurites) (adult rat DRG neurons): partially reduced the increase in neurite outgrowth
plasma membrane PIP3 (biosensor) (PI3Kα-WT A549 cells): fully and acutely neutralized
